The values that follow come from publication PMC12598832, “Synthesis and Anticancer Potential of New Benzimidazole Theranostic” (ChemistryOpen, 2025).

For data set [1], the system named is HCT116 (colorectal carcinoma) cell line. The data set can be described thus: MTT cell proliferation assay, HCT116. It is filed as cell-based. As to conditions: for IC50: MTT, 72 h, read-out: HCT116 IC50 [μM] ± SEM; for HCT116 Selectivity Index (SI): versus HEK293.
Data set [2] has as its system H103 (oral squamous cell carcinoma, OSCC) cell line. Nature of the data set: MTT cell proliferation assay, H103. Type of data set: cell-based. As to conditions: for IC50: MTT, 72 h, read-out: H103 IC50 [μM] ± SEM; for H103 Selectivity Index (SI): versus HEK293. From the text:
(§1) The H103 and H314 OSCC cell lines were obtained from the European Collection of Cell Cultures (ECACC). The HCT116 and HEK293 cell lines were obtained from the American Type Culture Collection (Rockville, MD).
(§2) All cell lines were maintained in high‐glucose Dulbecco's Modified Eagle Media (DMEM) (Sigma‐Aldrich, Buchs, Switzerland). The culture media was supplemented with 10% fetal bovine serum (FBS) (TICO, Amsterdam, Netherlands) and 1% penicillin‐streptomycin. Prior to the cell‐based assay, cell lines were incubated at 37 °C in a 5% CO2 humidified atmosphere
(§3) Cells were seeded in 96‐well plates at a density of 5 × 10^3 per well. After 24 h of seeding, the cells were treated with 50 μM of the compounds of interest (final concentration 0.25% DMSO) and allowed to adhere for 72 h at 37 °C in a 5% CO2 humidified atmosphere. The 3‐(4,5‐dimethylthiazol‐2‐yl)‐2,5‐diphenyltetrazolium bromide (MTT) assay was conducted to examine the cell cytotoxicity profiles of the synthesized compounds. Briefly, the treatment media was discarded, and 0.5 mg mL^−1 of MTT was added to each well. The plates were incubated for another 4 h at 37 °C in a 5% CO2 humidified atmosphere. Following the incubation, the medium‐MTT solution was removed, and 100 μL of DMSO was added to dissolve the formazan crystals. The absorbance was measured at 570 nm, with the reference wavelength at 620 nm, using the Tecan Infinite 200 Pro. The experiment was carried out in triplicate.

Data set [3] in a line: Fluorescence properties (molar extinction coefficient, quantum yield, Stokes shift). It is filed as physicochemical. As to the method: A series of dilutions of V7 (dissolved in DMSO) was prepared. The absorbance of the solutions at 326 nm was recorded on the UviLine 9400 spectrophotometer using a quartz cuvette (10 × 10 mm). A calibration curve of absorbance against concentration was generated. The molar extinction coefficient was calculated from the gradient of the line of best fit, in accordance with Beer–Lambert's law.
A series of dilutions of V7 (dissolved in DMSO) was prepared. The fluorescence emission peak at each concentration was determined using the Tecan Infinite 200 Pro microplate reader (λex = 326 nm and λem = 492 nm). The […] peak was plotted against the fluorescence emission peak and compared to that of a quinine sulfate standard, which has a known quantum yield.
The quantum yield of V7 was subsequently calculated using the following equation Φ=ΦR(Grad/GradR)(n^2/nr2)
The quinine sulfate reference has a quantum yield of 54.6% when dissolved in 0.5 M H2SO4.^[ [26] ^] The refractive index of 0.5 M H2SO4 is 1.346, while the refractive index of DMSO is 1.479.^[ [27] ^]

Data set [4] has as its system HEK293 cells. Nature of the data set: MTT cell proliferation assay, HEK293 (noncancerous). As to conditions: read-out: HEK293 IC50 [μM] ± SEM. Type of data set: cell-based, human.
Source text: as §1, §2, §3

Data set [5] deals with H314 (OSCC) cell line. The data set can be described thus: MTT cell proliferation assay, H314. It is filed as cell-based. The settings on record: for cytotoxic effect in preliminary screening, H314: 50 μM, versus control 0.25% DMSO, ANOVA/Tukey; for cytotoxic effect in preliminary screening, H314 / IC50: 72 h; for IC50: MTT, read-out: H314 IC50 [μM] ± SEM; for H314 Selectivity Index (SI): versus HEK293.
Source text: as §1, §2
as §3, with “After 24 h of seeding, the cells were treated with 50 μM of the compounds of interest (final concentration 0.25% DMSO) and allowed to adhere for 72 h at 37 °C in a 5% CO2 humidified atmosphere.” left out

The target in data set [6] is T1, SIRT2 human recombinant (Homo sapiens, UniProt Q8IXJ6).
T1 construct: purchased Cayman Chemicals, Ann Arbor 700,280
T1 sequence (Q8IXJ6 1-389): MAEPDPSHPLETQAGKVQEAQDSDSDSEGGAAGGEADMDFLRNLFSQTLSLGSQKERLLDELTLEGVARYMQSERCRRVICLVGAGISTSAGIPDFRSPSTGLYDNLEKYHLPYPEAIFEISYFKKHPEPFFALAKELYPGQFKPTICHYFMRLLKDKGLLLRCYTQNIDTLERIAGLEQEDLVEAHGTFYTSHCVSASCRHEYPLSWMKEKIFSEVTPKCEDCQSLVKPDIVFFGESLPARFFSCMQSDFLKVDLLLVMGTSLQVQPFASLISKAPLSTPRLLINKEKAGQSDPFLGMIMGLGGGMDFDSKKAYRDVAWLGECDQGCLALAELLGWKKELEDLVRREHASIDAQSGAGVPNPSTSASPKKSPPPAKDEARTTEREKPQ
The data set can be described thus: SIRT2 Direct Fluorescent Screening Assay Kit (Cayman). Type of data set: biochemical. As to conditions: for IC50: five concentrations 1-50 μM. On the procedure: The SIRT2 inhibitory activity of the compounds was evaluated using the SIRT2 Direct Fluorescent Screening Assay Kit (Cayman Chemicals, Ann Arbor, C/N: 700,280) according to the manufacturer's instructions. The SIRT2 peptide substrate comprised amino acids 317–320 of human p53 conjugated to […] (Gln‐Pro‐Lys‐Lys(ε‐acetyl)‐AMC). […] Subsequently, 50 μl of developer solution (6 μg μl^−1 SIRT2 developer, 2 mM nicotinamide) was added. The mixture was incubated for a further 30 min at room temperature. […] The fluorescence was measured with excitation and emission wavelengths of 355 and 460 nm, respectively, using the Tecan Infinite 200 Pro. The percentage inhibition was determined as the ratio of […] under each experimental condition to that of the control.

In data set [7] the test system is H103 (oral squamous cell carcinoma, OSCC) cell line. Further details: method as in PMID 32904142. As to conditions: previous study; cited from earlier work.
Data set [8] has as its system H103 cell line. Set-up: method as in ref 28 Khoo et al. The settings on record: 24 h treatment; ref 28 Khoo et al.; cited from earlier work.
The subject of data set [9] is H314 cell line. Set-up: method as in ref 28 Khoo et al. The settings on record: 24 h treatment; ref 28 Khoo et al.; cited from earlier work.
Details of data set [10]: method as in ref 26 = [26]; 26 W. H. Melhuish , J. Phys. Chem. 1961 , 65 , 229 . As to conditions: in 0.5 M H2SO4; cited from earlier work.
Setting [11] is: compound 50 μM, preliminary screening.
Where [12] appears, read: compound 50 μM, preliminary screening, read-out: Percentage SIRT2 inhibition (%).
The mark [13] stands for this setting: dose-response, 50 μM, read-out: % Inhibition of SIRT2.

Where “and” joins values, the source holds several entries; their conditions need not be identical. Equal entries are not always repeated. Structures can show the parent of a compound that is named as a salt. Where two headings read alike, the source gives them in different places. Where only a bound is given, the exact number is not on record here.

As for `CCOC(=O)c1ccc2[nH]c(-c3ccccc3O)nc2c1` [Compound V7], the IC50 in [1] (Homo sapiens, HCT-116) worked out at 13.3 ± 2.52 µM. Besides, the “HCT116 Selectivity Index (SI)” value in data set [1] worked out at 3.34. Further, in data set [2] (Homo sapiens, H103), the half-maximal inhibitory concentration (IC50) amounted to 11.6 ± 1.04 µM. Moreover, in data set [2], the “H103 Selectivity Index (SI)” value came out at 3.81. Also, the “molar extinction coefficient (molar absorptivity ε)” value in data set [3] (in DMSO, absorbance at 326 nm) is 34,477 M^−1 cm^−1 and 34 477 M^−1 cm^−1. Further, the “quantum yield Φ” value in [3] (in DMSO, λex 326 nm, λem 492 nm, versus quinine sulfate) was 26%. The “Stokes shift Δλ” value in [3] (λex 326 nm, λem 492 nm) came to 166 nm. Moreover, the half-inhibitory concentration (IC50) in [4] (Homo sapiens, HEK293, 72 h) was determined as 44.4 ± 3.03 µM. For the same molecule, in data set [5], the “cytotoxic effect in preliminary screening, H314” value (“cytotoxic effect” below) is on record as “highly significant effects”; the concentration for half-maximal inhibition (IC50) was 16.7 ± 1.13 µM; the “H314 Selectivity Index (SI)” value was 2.66. Besides, the “Percentage SIRT2 inhibition (%)” value in data set [6] (setting [11]) is “complete inhibition of enzymatic activity”. Moreover, the inhibition at 50 µM in data set [6] (setting [12]) was more than 95%. Besides, in [6] (dose-response), the inhibition at 1 µM is 0.2 ± 5.8%, the inhibition at 3 µM is 32.8 ± 2.8%, the inhibition at 10 µM came to 66.1 ± 7.1% and the inhibition at 25 µM was found to be 81.3 ± 3.2%. Moreover, the inhibition at 50 µM in data set [6] (setting [13]) amounted to 100 ± 3%. Besides, the IC50 in data set [6] was determined as 6.4 µM.

Consider `CCOC(=O)c1ccc2[nH]c(-c3ccc(O)cc3O)nc2c1` [Compound V2], for which the “Percentage SIRT2 inhibition (%)” value in [6] (setting [11]) is recorded as “complete inhibition of enzymatic activity”. The inhibition at 50 µM in data set [6] (setting [12]) is more than 95%. For the same molecule, in data set [6] (dose-response), the inhibition at 1 µM amounted to 19.4 ± 2.4%, the inhibition at 3 µM is 29.5 ± 6.6%, the inhibition at 10 µM amounted to 44.5 ± 0.2% and the inhibition at 25 µM is 59.8 ± 0.1%. Besides, in [6] (setting [13]), the inhibition at 50 µM amounted to 77 ± 0.1%. Moreover, the concentration for half-maximal inhibition (IC50) in data set [6] turned out to be 10.8 µM.

Turning to `CCOC(=O)c1ccc2[nH]c(-c3ccc4c(c3)OCO4)nc2c1` [BZD9Q1, reference compound], the IC50 in data set [1] (Homo sapiens, HCT-116) is 11.5 ± 2.3 µM; in [7], 5.83 µM; in [4] (Homo sapiens, HEK293, 72 h) it was 18.4 ± 2.95 µM; in data set [5], more than 100 µM. Further, the “HCT116 Selectivity Index (SI)” value in data set [1] is given as 1.60. The “H103 Selectivity Index (SI)” value in data set [2] was found to be 3.15.

As for `CCOC(=O)c1ccc2[nH]c(-c3ccc(O)c(OC)c3)nc2c1` [Compound V3], the inhibition at 50 µM in [6] (setting [12]) stood at 61.9 ± 12%.

Consider `N.N.[Cl][Pt][Cl]` [Cisplatin, reference compound], for which the IC50 was 8.24 ± 0.86 µM in [1]; 15 µM in [8]; 1.85 ± 0.42 µM in [2]; 200 µM in data set [9]; 3.54 ± 0.18 µM in data set [4] (72 h); 15.1 ± 1.05 µM in [5]. For the same molecule, in data set [1], the “HCT116 Selectivity Index (SI)” value worked out at 0.43. Further, the “sensitivity in H103 relative to H314” value in [2] (from IC50 values of Table 2) is 8 fold. Moreover, the “H103 Selectivity Index (SI)” value in [2] is given as 1.91. In addition, in data set [5], the “H314 Selectivity Index (SI)” value came out at 0.23.

For `CCOC(=O)c1ccc2[nH]c(-c3cccc(O)c3)nc2c1` [Compound V1], the inhibition at 50 µM in data set [6] (setting [12]) came to 25.4 ± 11.8%.

As to `CCOC(=O)c1ccc2[nH]c(-c3ccccc3OC)nc2c1` [Compound V6], in [6] (setting [11]), the “Percentage SIRT2 inhibition (%)” value is listed as “weakest inhibitory effect”. Moreover, in data set [6] (setting [12]), the inhibition at 50 µM amounted to 11.8 ± 11.4%.

With `CCOC(=O)c1ccc2[nH]c(-c3ccc(O)c(O)c3)nc2c1` [Compound V9], the half-maximal inhibitory concentration (IC50) was 16.6 ± 3.52 µM in data set [1] (Homo sapiens, HCT-116); more than 50 µM in [2] (Homo sapiens, H103); 51.8 ± 5.65 µM in data set [4] (Homo sapiens, HEK293, 72 h); 37.8 ± 1.81 µM in [5]. The “HCT116 Selectivity Index (SI)” value in [1] came out at 3.13. Besides, in [5], the “cytotoxic effect” value was “highly significant effects”. In data set [5], the “H314 Selectivity Index (SI)” value is listed as 1.37. Further, the inhibition at 50 µM in [6] (setting [12]) is 39.3 ± 7.3%.

Consider `CCOC(=O)c1ccc2[nH]c(-c3ccc(OC)c(O)c3)nc2c1` [Compound V4], for which the “Percentage SIRT2 inhibition (%)” value in [6] (setting [11]) was “no SIRT2 inhibition”.

As for `CCOC(=O)c1ccc2[nH]c(-c3ccc(OC)c(OC)c3)nc2c1` [Compound V8], in data set [6] (setting [12]), the inhibition at 50 µM worked out at 25.5 ± 12.9%.

Take `C=C[C@H]1C[N@@]2CC[C@H]1C[C@H]2[C@H](O)c1ccnc2ccc(OC)cc12` [quinine sulfate]: the “quantum yield of reference” value in data set [10] is on record as 54.6%.

For the molecule `CCOC(=O)c1ccc2[nH]c(-c3cccc(OC)c3)nc2c1` [Compound V5], the half-maximal inhibitory concentration (IC50) in data set [1] (Homo sapiens, HCT-116) stood at 11.2 ± 3.14 µM; in [2] (Homo sapiens, H103), 22.8 ± 3.84 µM; in data set [4] (Homo sapiens, HEK293, 72 h), 45.6 ± 2.18 µM; in data set [5] it was 31.7 ± 1.27 µM. In data set [1], the “HCT116 Selectivity Index (SI)” value was 4.08. Further, in data set [2], the “H103 Selectivity Index (SI)” value is given as 2.00. For the same molecule, the “cytotoxic effect” value in data set [5] is on record as “highly significant effects”. The “H314 Selectivity Index (SI)” value in data set [5] was 1.44. In addition, the “Percentage SIRT2 inhibition (%)” value in data set [6] (setting [11]) was “no SIRT2 inhibition”.
